Broadly, the Kd is a measure of binding affinity in units of concentration. A word on the IC50: it is the concentration needed to halve the response being measured.

Test [1] deals with T1, FGFR1 (Homo sapiens, UniProt P11362).
T1 construct: made in house; host or cells: E. coli derived from BL21, infected with T7 phage
Briefly: Kinase binding assay (kinase-tagged T7 phage, qPCR), Kd. The note with it: read-out: FGFR1 (Kd nM). A general note: In qPCR the cycle at which signal appears reflects the starting amount.

In test [2] the target is T2, FGFR2 (Homo sapiens, UniProt P21802).
T2 construct: made in house; host or cells: E. coli derived from BL21, infected with T7 phage
T2 sequence (P21802 22-821): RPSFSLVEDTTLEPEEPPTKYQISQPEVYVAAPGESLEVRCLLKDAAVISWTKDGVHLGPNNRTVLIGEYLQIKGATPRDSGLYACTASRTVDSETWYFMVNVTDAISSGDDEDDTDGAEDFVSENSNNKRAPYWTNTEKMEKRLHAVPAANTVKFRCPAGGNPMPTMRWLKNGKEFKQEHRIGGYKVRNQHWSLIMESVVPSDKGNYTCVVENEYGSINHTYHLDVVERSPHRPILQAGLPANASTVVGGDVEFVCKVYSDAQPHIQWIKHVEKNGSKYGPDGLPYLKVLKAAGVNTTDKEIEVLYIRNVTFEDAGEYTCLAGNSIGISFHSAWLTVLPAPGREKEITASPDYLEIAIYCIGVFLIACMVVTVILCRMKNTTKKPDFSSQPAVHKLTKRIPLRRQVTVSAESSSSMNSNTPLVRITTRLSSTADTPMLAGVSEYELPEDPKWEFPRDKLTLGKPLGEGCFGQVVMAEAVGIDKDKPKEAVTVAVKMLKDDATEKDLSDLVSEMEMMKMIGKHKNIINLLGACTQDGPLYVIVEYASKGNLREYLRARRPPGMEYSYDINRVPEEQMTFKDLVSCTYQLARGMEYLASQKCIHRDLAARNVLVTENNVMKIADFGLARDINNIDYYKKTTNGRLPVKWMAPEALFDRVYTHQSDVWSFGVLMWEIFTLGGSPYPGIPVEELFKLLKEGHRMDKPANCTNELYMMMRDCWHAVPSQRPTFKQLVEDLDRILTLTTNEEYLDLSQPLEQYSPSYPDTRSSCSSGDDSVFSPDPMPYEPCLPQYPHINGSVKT
The description is as above. Conditions: read-out: FGFR2 (Kd nM).

Test [3] deals with T3, FGFR3 (Homo sapiens, UniProt P22607).
T3 construct: made in house; host or cells: E. coli derived from BL21, infected with T7 phage
T3 sequence (P22607 23-806): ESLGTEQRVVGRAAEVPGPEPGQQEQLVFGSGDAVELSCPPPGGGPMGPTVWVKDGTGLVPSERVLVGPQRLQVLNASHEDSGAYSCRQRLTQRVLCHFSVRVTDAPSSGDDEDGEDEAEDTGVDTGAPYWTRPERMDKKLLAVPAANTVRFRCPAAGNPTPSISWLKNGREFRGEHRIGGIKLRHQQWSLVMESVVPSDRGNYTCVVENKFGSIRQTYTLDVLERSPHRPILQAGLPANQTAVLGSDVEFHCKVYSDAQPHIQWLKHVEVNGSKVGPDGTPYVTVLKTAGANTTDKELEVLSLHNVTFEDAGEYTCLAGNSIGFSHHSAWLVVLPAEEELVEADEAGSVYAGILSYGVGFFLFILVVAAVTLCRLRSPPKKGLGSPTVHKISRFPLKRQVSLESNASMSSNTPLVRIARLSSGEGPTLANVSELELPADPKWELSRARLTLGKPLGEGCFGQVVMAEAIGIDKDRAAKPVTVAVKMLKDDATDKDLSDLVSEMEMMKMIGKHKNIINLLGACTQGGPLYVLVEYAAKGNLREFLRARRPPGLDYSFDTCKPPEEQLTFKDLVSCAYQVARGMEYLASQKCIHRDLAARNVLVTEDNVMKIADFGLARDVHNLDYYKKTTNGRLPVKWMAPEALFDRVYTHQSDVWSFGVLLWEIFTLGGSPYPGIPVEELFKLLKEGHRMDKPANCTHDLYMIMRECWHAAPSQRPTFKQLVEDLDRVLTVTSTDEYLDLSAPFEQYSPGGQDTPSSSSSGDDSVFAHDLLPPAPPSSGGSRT
Described as above. The note with it: read-out: FGFR3 (Kd nM).

Test [4] has as its target T4, FGFR4 (Homo sapiens, UniProt P22455).
T4 construct: made in house; host or cells: E. coli derived from BL21, infected with T7 phage
The test is described as above. Conditions: read-out: FGFR4 (Kd nM).

The target of test [5] is T5, BCR-FGFR1 Ba/F3 (Homo sapiens, UniProt P11362).
T5 construct: host or cells: Ba/F3; the other entry of the earlier key: BCR (P11274, Breakpoint cluster region protein)
T5 sequence (P11362 478-767 limits assumed): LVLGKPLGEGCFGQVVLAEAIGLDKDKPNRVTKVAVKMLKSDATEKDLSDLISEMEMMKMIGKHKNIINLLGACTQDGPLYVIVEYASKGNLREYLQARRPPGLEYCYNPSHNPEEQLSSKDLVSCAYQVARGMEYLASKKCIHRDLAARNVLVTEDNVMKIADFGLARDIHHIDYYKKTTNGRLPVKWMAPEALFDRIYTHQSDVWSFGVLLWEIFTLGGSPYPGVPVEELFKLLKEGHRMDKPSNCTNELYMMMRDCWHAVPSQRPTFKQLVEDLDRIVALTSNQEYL
As to the kind of experiment: Ba/F3 cell viability assay (CellTiter-Glo 2.0). In kind it is cell-based. The note with it: Ba/F3 BCR-FGFR1 cells, 48 hours. On the technique in general: In ATP-based viability assays light output follows the ATP content of the culture.

Test [6] addresses T6, BCR-FGFR4 Ba/F3 (Homo sapiens, UniProt P22455).
T6 construct: host or cells: Ba/F3; the other entry of the earlier key: BCR (P11274, Breakpoint cluster region protein)
As to the kind of experiment: Ba/F3 cell viability assay (CellTiter-Glo 2.0). In kind it is cell-based. The note with it: Ba/F3 BCR-FGFR4 cells, 48 hours.

The target of test [7] is T7, FGFR3-BAIAP2L1 Ba/F3 (Homo sapiens, UniProt P22607).
T7 construct: host or cells: Ba/F3; the other entry of the earlier key: BAIAP2L1 (Q9UHR4, BAR/IMD domain-containing adapter protein 2-like 1)
T7 sequence (P22607 397-758 limits assumed): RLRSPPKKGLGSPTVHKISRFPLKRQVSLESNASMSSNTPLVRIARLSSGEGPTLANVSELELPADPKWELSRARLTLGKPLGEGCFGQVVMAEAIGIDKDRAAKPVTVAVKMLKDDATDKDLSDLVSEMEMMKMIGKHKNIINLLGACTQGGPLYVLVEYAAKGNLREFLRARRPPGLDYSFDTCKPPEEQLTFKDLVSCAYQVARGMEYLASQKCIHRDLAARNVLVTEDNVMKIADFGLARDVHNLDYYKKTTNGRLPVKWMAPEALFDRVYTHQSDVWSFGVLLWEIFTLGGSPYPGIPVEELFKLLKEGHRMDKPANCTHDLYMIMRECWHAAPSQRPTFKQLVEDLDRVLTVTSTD
Briefly: Ba/F3 cell viability assay (CellTiter-Glo 2.0). It is filed as cell-based. The note with it: Ba/F3 FGFR3-BAIAP2L1 cells, 48 hours.

Bounds are passed on as bounds.

T1 sequence (P11362 22-822): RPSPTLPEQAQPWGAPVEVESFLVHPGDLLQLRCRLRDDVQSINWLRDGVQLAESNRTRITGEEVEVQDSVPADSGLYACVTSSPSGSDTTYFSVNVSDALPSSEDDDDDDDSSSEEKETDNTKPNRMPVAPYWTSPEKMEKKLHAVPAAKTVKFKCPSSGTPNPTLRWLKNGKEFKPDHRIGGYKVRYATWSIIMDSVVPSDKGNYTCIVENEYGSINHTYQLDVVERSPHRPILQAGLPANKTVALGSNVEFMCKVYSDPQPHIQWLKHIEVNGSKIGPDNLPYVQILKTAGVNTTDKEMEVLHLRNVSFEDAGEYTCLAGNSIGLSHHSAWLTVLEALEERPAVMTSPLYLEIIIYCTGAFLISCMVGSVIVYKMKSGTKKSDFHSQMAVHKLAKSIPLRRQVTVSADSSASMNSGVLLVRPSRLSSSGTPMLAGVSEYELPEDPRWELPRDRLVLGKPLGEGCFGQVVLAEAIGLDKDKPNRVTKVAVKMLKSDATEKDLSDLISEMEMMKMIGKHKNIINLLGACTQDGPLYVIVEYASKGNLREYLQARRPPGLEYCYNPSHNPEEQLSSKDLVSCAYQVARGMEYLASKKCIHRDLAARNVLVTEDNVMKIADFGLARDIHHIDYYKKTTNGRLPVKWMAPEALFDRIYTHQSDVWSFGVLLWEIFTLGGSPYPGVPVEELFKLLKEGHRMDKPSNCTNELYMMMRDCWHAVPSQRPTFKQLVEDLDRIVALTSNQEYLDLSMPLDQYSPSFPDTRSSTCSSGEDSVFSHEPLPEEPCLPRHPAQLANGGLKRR
T4 sequence (P22455 22-802): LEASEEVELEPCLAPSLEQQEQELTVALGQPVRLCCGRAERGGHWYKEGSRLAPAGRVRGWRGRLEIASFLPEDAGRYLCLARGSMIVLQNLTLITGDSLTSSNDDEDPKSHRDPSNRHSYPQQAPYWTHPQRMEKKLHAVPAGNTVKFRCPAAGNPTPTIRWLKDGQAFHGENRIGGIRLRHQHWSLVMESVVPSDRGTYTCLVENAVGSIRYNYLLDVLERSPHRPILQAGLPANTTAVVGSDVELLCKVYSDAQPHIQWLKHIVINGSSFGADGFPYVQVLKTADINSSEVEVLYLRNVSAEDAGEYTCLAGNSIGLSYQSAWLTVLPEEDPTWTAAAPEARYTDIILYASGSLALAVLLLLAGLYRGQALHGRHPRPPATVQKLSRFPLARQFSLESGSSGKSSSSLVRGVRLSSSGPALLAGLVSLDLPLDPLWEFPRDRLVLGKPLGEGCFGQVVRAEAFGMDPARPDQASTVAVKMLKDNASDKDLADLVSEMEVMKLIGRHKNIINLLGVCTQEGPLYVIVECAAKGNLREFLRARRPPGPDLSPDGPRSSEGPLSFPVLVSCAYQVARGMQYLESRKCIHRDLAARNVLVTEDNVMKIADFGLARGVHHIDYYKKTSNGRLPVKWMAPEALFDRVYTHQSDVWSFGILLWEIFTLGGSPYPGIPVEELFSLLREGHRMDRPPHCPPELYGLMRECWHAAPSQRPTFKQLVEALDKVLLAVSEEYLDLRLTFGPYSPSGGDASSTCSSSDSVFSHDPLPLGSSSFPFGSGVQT
T6 sequence (P22455 467-755 limits assumed): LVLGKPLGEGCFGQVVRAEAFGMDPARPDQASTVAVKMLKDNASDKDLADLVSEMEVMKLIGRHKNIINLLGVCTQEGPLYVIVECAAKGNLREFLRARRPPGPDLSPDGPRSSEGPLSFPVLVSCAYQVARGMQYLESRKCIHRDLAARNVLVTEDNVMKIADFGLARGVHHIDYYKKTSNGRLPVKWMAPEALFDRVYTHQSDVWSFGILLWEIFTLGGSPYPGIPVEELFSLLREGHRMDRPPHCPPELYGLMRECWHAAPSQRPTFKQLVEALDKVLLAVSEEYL

As to `C=CC(=O)N1CCOc2ncc(-c3n[nH]c4ccc(O[C@H](C)c5c(Cl)cncc5Cl)cc34)cc21` [Example 25, 1-[7-[5-[(1R)-1-(3,5-dichloro-4-pyridyl)ethoxy]-1H-indazol-3-yl]-2,3-dihydro-pyrido[2,3-b][1,4]oxazin-1-yl]prop-2-en-1-one], the equilibrium dissociation constant (Kd) in test [1] is more than 1000 nM; in test [2], more than 1000 nM; in test [3] it was more than 1000 nM; in test [4], 0.1 to 100 nM. Moreover, the IC50 was more than 1000 nM in test [5], 0.1 to 100 nM in test [6] and 250 to 1000 nM in test [7].
Turning to `Cc1cc(C#N)cc(-c2n[nH]c3ccc(O[C@H](C)c4c(C)cnnc4C)cc23)c1` [Example 79, 3-[5-[(1R)-1-(3,5-dimethylpyridazin-4-yl)ethoxy]-1H-indazol-3-yl]-5-methyl-benzonitrile], the Kd in test [1], in test [2], in test [3] and in test [4] was 0.1 to 100 nM each time. In addition, the results for the IC50 in test [5], in test [6] and in test [7] were 250 to 1000 nM, 250 to 1000 nM and 0.1 to 100 nM, respectively.
For the compound `Cc1cnnc(C)c1[C@@H](C)Oc1ccc2[nH]nc(-c3cc(C#N)cc(OCCO)c3)c2c1` [Example 72, 3-[5-[(1R)-1-(3,5-dimethylpyridazin-4-yl)ethoxy]-1H-indazol-3-yl]-5-(2-hydroxyethoxy)benzonitrile], the Kd in test [1], in test [2], in test [3] and in test [4] was 0.1 to 100 nM each time. The IC50 in test [5] was in the range of 250 to 1000 nM; in test [6], 100 to 250 nM; in test [7], 0.1 to 100 nM.
For the compound `C[C@@H](Oc1ccc2[nH]nc(-c3cnc(N)c(OC(F)F)c3)c2c1)c1c(Cl)cncc1Cl` [Example 28, 5-[5-[(1R)-1-(3,5-dichloro-4-pyridyl)ethoxy]-1H-indazol-3-yl]-3-(difluoromethoxy)pyridin-2-amine], the Kd in test [1] is 250 to 1000 nM; in test [2] it was more than 1000 nM; in test [3], 250 to 1000 nM; in test [4], 0.1 to 100 nM. Besides, the IC50 is more than 1000 nM in test [5], 250 to 1000 nM in test [6] and 250 to 1000 nM in test [7].
For `Cc1nccc(C(=O)N2CCOc3ncc(-c4n[nH]c5ccc(O[C@H](C)c6c(Cl)cncc6Cl)cc45)cc32)n1` [Example 40, [7-[5-[(1R)-1-(3,5-dichloro-4-pyridyl)ethoxy]-1H-indazol-3-yl]-2,3-dihydro-pyrido[2,3-b][1,4]oxazin-1-yl]-(2-methyl-pyrimidin-4-yl)methanone], the Kd is 250 to 1000 nM in test [1], 250 to 1000 nM in test [2], 0.1 to 100 nM in test [3] and 0.1 to 100 nM in test [4]. Also, the IC50 in test [6] is 250 to 1000 nM.
